Assay [1] relates to MDA-MB-231 cells. The assay can be described thus: SRB antiproliferative assay, MDA-MB-231. Conditions: for IC50: Homo sapiens, MDA-MB-231, 48 h, MDA-MB-231 triple-negative breast cancer cells, SRB assay, 48 h, mean ± S.D. of three experiments. Type of assay: cell-based, human. The procedure: 1. Anti-proliferative action toward human breast cell lines […]
and non-tumorigenic human breast epithelial cell line (MCF-10A) have been obtained from American Type Culture Collection (ATCC). The cells were maintained in Dulbecco's modified Eagle's medium (DMEM) supplemented with 10% heat inactivated fetal calf serum (GIBCO), penicillin (100 U/ml) and streptomycin (100 µg/ml) at 37 °C in humidified atmosphere containing 5% CO2. […]
grown in a 25 cm2 flask in 5 ml of culture medium.
The anti-proliferative activity of the tested compounds was measured in vitro using the Sulfo-Rhodamine-B stain (SRB) assay. Briefly, Cells were inoculated in 96-well microtiter plate (5X104 cells/ well) for 24 h before treatment with the tested compounds to allow attachment of cell to the wall of the plate. Tested compounds were dissolved in DMSO at 1 mg/ml immediately before use and diluted to the appropriate volume just before addition to the cell culture. Different concentrations of tested compounds, doxorubicin and sorafenib were added to the cells (three wells were prepared for each […]
atmosphere of 5% CO2. After 48 h cells were fixed, washed, and stained for 30 min with 0.4% (w/v) SRB dissolved in 1% acetic acid. Unbound dye was removed by four washes with 1% acetic acid, and attached stain was recovered with Tris-EDTA buffer. Color intensity was measured in an ELISA reader. The relation between percent of surviving fraction and drug concentration is plotted to get the survival curve for each cell line. […]
In general terms: In SRB staining, fixed cells bind dye roughly in proportion to their protein.

Assay [2] has as its system caspase-3. The assay can be described thus: ELISA immunoassay, active caspase-3 level. It counts as cell-based, human. To be noted: for increase of caspase-3 level vs control: MCF-7 cells; for Caspase-3: active caspase-3, MCF-7 cells, IC50 concentration, 48 h. The procedure:
Moreover, their effect on the level of caspase-3; the executioner caspase and p53 was evaluated in the MCF-7 cell line. […] In addition, they augmented the level of p53 by 15.4- and 11.75-fold, respectively in comparison to the control (Table 5, Figure 3).
Effects of treatment of breast cancer MCF-7 cells with bis-indoles 7e and 9a on the expression levels of the pro-apoptotic markers (Bax, caspase-3, and p53) in addition to the anti-apoptotic protein Bcl-2 marker was assessed by the use of ELISA colorimetric kits as per the manufacturer’s instructions, as described earlier.
The levels of the pro-apoptotic markers (Bax, caspase-3 and p53) as well as the anti-apoptotic marker Bcl-2 were determined using ELISA colorimetric kits per the manufacturer’s instructions. Breast cancer MCF-7 cells were cultured as a monolayer in T-25 flasks and were seeded to attain 30% confluency prior to treatment. Cells were […]
At the end of treatment, cells were collected via trypsinization and centrifuged at 10,000 rpm. The pellet was then rinsed with PBS and lysed in RIPA lysis buffer at 4 °C for 45 min, then centrifuged at 14,000 rpm for 20 min to remove the cellular debris. Lysates were then collected and stored at −80 °C for later protein determination using Pierce BCA Protein Assay Kit according to manufacturer’s recommendations.
The cell lysate was diluted 10 times, and 100 μL ([…]) was added to the wells of four separate microtiter plates for the four ELISA kits that were pre-coated with primary antibodies specific to Bax, Bcl-2, caspase-3 and p53 proteins, respectively. A secondary biotin-linked antibody specific to the protein captured by the primary antibody was further added to bind the captured protein, forming a “sandwich” of specific antibodies around the desired protein in the cell lysate. The streptavidin-HRP complex was then used to bind the biotin-linked secondary antibody through its streptavidin portion. The HRP domain reacted with the added TMB substrate to form a colored product that measured at 450 nm by a plate reader ChroMate-4300 after the reaction was terminated via the addition of stop solution. […]

For the compound `O=C(Cc1c[nH]c2ccccc12)NN=C1C(=O)Nc2ccc([N+](=O)[O-])cc21` [Compound 7e, 2-(1H-Indol-3-yl)-N′-(5-nitro-2-oxoindolin-3-ylidene)acetohydrazide], 1.32 ± 0.03 µM corresponded to half-maximal inhibition in assay [1] (IC50). Also, the “potency relative to Staurosporine, MDA-MB-231” value in assay [1] (ratio of IC50 values, MDA-MB-231 cells) is 7.8 times. Moreover, in assay [2], the “increase of caspase-3 level vs control” value is listed as 11.7 fold and the Caspase-3 was found to be 409.2 ± 17.2 pg/mg.

Consider `C=CCN1C(=O)C(=NNC(=O)Cc2c[nH]c3ccccc23)c2ccccc21` [Compound 9a, N′-(1-Allyl-2-oxoindolin-3-ylidene)-2-(1H-indol-3-yl)acetohydrazide], for which the IC50 (in general, the concentration that inhibits the measured activity by half) in assay [1] was 18.2 ± 0.62 µM. Moreover, in assay [2], the “increase of caspase-3 level vs control” value is recorded as 9.5 fold and the Caspase-3 is on record as 331.0 ± 12.5 pg/mg.

The values are drawn from article PMC7230731 (Marine Drugs, 2020).
